{"source": "paper PMC9954146", "about": "“Anti-Leukaemic Activity of Rilpivirine Is Mediated by Aurora A Kinase Inhibition” (Cancers, 2023)", "assay_in_all_cases": "Kinase panel", "type_in_all_cases": "biochemical", "conditions_in_all_cases": "read-out: % Residual Activity", "key": {"ALK(h)": {"target": "T1, ALK(h) (Homo sapiens, UniProt Q9UM73)", "T1 construct": "purchased Eurofins (KinaseProfiler)", "how_it_was_run": "(§1)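 For each panel kinase, rilpivirine inhibition is measured by radioactive phosphate transfer with ATP at that enzyme's Km, […].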"}, "ALK4(h)": {"target": "T2, ALK4(h) (Homo sapiens, UniProt P36896)", "T2 construct": "purchased Eurofins (KinaseProfiler)", "T2 sequence (P36896 24-505)": "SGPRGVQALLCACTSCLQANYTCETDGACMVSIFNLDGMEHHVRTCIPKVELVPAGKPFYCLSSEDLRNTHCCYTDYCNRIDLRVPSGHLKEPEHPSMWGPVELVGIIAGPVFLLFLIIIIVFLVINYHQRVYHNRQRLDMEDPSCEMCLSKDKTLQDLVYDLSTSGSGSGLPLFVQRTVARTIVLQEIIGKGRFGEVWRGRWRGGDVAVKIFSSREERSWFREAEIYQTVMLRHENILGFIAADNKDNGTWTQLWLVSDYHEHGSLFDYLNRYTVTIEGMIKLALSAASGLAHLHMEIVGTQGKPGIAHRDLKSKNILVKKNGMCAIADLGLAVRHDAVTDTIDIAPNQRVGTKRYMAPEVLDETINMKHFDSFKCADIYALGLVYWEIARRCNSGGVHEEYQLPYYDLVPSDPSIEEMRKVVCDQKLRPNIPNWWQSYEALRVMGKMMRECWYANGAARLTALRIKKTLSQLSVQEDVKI", "how_it_was_run": "as §1"}, "Aurora-B(h)": {"target": "T3, Aurora-B(h) (Homo sapiens, UniProt Q96GD4)", "T3 construct": "purchased Eurofins (KinaseProfiler)", "how_it_was_run": "as §1"}, "Blk(m)": {"target": "T4, Blk(m) (Mus musculus, UniProt P16277)", "T4 construct": "purchased Eurofins (KinaseProfiler)", "how_it_was_run": "as §1"}, "CDK18/cyclinY(h)": {"target": "T5, CDK18/cyclinY(h) (Homo sapiens, UniProt Q07002)", "T5 construct": "purchased Eurofins (KinaseProfiler)", "how_it_was_run": "as §1"}, "CDK5/p25(h)": {"target": "T6, CDK5/p25(h) (Homo sapiens, UniProt Q00535)", "T6 construct": "purchased Eurofins (KinaseProfiler)", "T6 sequence (Q00535 whole entry)": "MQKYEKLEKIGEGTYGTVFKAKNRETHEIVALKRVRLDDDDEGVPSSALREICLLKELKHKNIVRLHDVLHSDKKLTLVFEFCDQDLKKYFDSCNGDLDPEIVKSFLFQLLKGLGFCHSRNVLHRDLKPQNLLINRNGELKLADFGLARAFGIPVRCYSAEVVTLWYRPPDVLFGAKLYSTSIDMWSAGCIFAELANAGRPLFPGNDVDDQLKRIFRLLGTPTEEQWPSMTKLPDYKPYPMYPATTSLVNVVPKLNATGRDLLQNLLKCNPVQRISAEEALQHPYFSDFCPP", "T6 sequence (Q15078 99-307 partner limits assumed)": "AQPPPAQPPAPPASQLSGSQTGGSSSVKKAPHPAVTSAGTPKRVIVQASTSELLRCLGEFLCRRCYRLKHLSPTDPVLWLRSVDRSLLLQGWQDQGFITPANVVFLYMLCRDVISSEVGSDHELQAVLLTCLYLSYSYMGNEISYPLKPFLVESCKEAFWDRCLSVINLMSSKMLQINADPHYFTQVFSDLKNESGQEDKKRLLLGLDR", "how_it_was_run": "as §1"}, "CDK6/cyclinD3(h)": {"target": "T7, CDK6/cyclinD3(h) (Homo sapiens, UniProt Q00534)", "T7 construct": "purchased Eurofins (KinaseProfiler)", "how_it_was_run": "as §1"}, "CaMKIIβ(h)": {"target": "T8, CaMKIIβ(h) (Homo sapiens, UniProt Q13554)", "T8 construct": "purchased Eurofins (KinaseProfiler)", "how_it_was_run": "as §1"}, "CaMKIV(h)": {"target": "T9, CaMKIV(h) (Homo sapiens, UniProt Q16566)", "T9 construct": "purchased Eurofins (KinaseProfiler)", "how_it_was_run": "as §1"}, "DCAMKL2(h)": {"target": "T10, DCAMKL2(h) (Homo sapiens, UniProt Q8N568)", "T10 construct": "purchased Eurofins (KinaseProfiler)", "how_it_was_run": "as §1"}, "EGFR(h)": {"target": "T11, EGFR(h) (Homo sapiens, UniProt P00533)", "T11 construct": "purchased Eurofins (KinaseProfiler)", "T11 sequence (P00533 25-1210)": "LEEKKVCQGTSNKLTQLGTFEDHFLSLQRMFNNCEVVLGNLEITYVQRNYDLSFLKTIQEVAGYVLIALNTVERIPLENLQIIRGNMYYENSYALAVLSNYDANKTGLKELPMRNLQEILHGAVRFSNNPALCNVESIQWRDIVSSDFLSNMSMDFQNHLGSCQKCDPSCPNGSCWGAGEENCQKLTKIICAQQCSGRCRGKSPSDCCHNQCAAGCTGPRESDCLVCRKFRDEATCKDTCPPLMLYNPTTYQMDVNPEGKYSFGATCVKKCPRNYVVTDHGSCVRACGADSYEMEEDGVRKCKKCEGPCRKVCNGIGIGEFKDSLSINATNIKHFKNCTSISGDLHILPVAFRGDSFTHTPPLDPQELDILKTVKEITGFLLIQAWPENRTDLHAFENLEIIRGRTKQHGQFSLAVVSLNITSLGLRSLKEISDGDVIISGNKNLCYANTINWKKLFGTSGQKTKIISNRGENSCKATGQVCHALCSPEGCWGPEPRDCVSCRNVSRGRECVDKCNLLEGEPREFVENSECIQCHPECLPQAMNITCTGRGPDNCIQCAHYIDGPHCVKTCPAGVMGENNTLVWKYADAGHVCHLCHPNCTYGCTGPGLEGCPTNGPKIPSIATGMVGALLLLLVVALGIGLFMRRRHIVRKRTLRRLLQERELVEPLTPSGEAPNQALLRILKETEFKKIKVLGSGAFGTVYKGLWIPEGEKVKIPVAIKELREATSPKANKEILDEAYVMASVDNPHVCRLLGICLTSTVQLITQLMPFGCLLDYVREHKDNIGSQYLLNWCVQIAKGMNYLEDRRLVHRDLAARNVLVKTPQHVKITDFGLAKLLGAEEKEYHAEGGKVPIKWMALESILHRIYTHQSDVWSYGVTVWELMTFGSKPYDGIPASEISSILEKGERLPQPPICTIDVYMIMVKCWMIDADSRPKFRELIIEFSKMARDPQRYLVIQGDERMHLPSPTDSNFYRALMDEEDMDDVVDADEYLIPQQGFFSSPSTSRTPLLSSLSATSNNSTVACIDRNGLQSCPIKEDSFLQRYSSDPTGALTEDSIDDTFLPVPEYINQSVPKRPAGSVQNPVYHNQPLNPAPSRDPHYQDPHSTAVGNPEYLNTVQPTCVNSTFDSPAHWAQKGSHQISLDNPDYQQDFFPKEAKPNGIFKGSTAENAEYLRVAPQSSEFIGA", "how_it_was_run": "as §1"}, "FAK(h)": {"target": "T12, FAK(h) (Homo sapiens, UniProt Q05397)", "T12 construct": "purchased Eurofins (KinaseProfiler)", "how_it_was_run": "as §1"}, "FGFR3(h)": {"target": "T13, FGFR3(h) (Homo sapiens, UniProt P22607)", "T13 construct": "purchased Eurofins (KinaseProfiler)", "how_it_was_run": "as §1"}, "IR(h), activated": {"target": "T14, IR(h), activated (Homo sapiens, UniProt P06213)", "T14 construct": "purchased Eurofins (KinaseProfiler)", "how_it_was_run": "as §1"}, "JNK1α1(h)": {"target": "T15, JNK1α1(h) (Homo sapiens, UniProt P45983)", "T15 construct": "purchased Eurofins (KinaseProfiler)", "how_it_was_run": "as §1"}, "LTK(h)": {"target": "T16, LTK(h) (Homo sapiens, UniProt P29376)", "T16 construct": "purchased Eurofins (KinaseProfiler)", "T16 sequence (P29376 17-864)": "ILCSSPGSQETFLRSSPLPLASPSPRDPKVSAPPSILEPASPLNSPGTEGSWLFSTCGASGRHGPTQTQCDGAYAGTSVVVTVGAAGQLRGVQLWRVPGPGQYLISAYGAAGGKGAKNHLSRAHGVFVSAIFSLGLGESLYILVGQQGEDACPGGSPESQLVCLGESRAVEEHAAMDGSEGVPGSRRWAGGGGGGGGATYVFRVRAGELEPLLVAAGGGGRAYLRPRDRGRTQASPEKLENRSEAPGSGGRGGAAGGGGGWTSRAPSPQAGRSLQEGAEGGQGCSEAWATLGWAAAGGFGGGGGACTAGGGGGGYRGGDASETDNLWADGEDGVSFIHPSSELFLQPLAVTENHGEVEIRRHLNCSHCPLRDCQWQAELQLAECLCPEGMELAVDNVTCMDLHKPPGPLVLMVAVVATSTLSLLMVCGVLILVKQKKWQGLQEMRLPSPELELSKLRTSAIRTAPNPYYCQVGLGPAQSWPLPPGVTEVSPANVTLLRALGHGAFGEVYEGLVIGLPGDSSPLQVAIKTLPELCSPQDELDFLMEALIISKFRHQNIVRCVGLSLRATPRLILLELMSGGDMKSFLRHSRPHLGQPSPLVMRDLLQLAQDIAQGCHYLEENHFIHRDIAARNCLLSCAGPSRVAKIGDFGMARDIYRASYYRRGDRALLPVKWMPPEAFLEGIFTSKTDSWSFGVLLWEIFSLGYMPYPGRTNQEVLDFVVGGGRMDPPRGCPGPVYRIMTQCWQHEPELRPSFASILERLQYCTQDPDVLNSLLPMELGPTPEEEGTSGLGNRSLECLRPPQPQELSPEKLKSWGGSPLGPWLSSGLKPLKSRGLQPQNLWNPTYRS", "how_it_was_run": "as §1"}, "Lck(h) activated": {"target": "T17, Lck(h) activated (Homo sapiens, UniProt P06239)", "T17 construct": "purchased Eurofins (KinaseProfiler)", "how_it_was_run": "as §1"}, "MKK3(h)": {"target": "T18, MKK3(h) (Homo sapiens, UniProt P46734)", "T18 construct": "purchased Eurofins (KinaseProfiler)", "how_it_was_run": "as §1"}, "MLK4(h)": {"target": "T19, MLK4(h) (Homo sapiens, UniProt Q5TCX8)", "T19 construct": "purchased Eurofins (KinaseProfiler)", "how_it_was_run": "as §1"}, "MST3(h)": {"target": "T20, MST3(h) (Homo sapiens, UniProt Q9Y6E0)", "T20 construct": "purchased Eurofins (KinaseProfiler)", "how_it_was_run": "as §1"}, "Mer(h)": {"target": "T21, Mer(h) (Homo sapiens, UniProt Q12866)", "T21 construct": "purchased Eurofins (KinaseProfiler)", "how_it_was_run": "as §1"}, "Met(Y1248H)(h)": {"target": "T22, Met(Y1248H)(h) (Homo sapiens, UniProt P08581, Y1230H)", "T22 construct": "purchased Eurofins (KinaseProfiler)", "how_it_was_run": "as §1"}, "MuSK(h)": {"target": "T23, MuSK(h) (Homo sapiens, UniProt O15146)", "T23 construct": "purchased Eurofins (KinaseProfiler)", "how_it_was_run": "as §1"}, "NEK2(h)": {"target": "T24, NEK2(h) (Homo sapiens, UniProt P51955)", "T24 construct": "purchased Eurofins (KinaseProfiler)", "how_it_was_run": "as §1"}, "NUAK2(h)": {"target": "T25, NUAK2(h) (Homo sapiens, UniProt Q9H093)", "T25 construct": "purchased Eurofins (KinaseProfiler)", "how_it_was_run": "as §1"}, "PAK4(h)": {"target": "T26, PAK4(h) (Homo sapiens, UniProt O96013)", "T26 construct": "purchased Eurofins (KinaseProfiler)", "how_it_was_run": "as §1"}, "PDGFRα(h)": {"target": "T27, PDGFRα(h) (Homo sapiens, UniProt P16234)", "T27 construct": "purchased Eurofins (KinaseProfiler)", "T27 sequence (P16234 24-1089)": "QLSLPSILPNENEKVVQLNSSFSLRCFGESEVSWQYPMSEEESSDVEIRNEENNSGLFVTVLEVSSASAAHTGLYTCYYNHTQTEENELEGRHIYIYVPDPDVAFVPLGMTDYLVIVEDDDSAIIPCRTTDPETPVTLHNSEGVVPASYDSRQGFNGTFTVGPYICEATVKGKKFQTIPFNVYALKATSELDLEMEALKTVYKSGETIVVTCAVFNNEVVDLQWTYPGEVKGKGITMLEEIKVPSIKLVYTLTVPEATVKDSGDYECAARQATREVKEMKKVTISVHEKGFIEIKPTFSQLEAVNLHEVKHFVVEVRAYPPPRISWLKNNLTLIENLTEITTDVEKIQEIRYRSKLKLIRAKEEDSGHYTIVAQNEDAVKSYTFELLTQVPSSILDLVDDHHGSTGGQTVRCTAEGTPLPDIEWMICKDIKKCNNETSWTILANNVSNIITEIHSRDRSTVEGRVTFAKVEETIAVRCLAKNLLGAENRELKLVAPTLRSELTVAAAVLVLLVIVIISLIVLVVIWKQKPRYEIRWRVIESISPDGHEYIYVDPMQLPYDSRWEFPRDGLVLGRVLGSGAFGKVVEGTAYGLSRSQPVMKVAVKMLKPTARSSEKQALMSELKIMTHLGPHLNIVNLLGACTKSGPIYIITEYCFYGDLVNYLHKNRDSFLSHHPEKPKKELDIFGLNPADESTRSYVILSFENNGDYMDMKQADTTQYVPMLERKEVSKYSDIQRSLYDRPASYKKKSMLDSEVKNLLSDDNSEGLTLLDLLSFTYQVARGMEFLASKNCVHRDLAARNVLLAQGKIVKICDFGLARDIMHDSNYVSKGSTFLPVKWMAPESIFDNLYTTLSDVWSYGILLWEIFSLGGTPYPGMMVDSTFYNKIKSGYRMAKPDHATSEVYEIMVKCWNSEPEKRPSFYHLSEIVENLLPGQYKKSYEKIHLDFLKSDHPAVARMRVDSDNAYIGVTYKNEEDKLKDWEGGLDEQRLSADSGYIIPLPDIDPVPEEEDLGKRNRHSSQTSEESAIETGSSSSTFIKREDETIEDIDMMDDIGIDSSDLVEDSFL", "how_it_was_run": "as §1"}, "PI3KC2a(h)": {"target": "PI3KC2a(h) (Homo sapiens, UniProt O00443)", "how_it_was_run": "as §1"}, "PKA(h)": {"target": "T28, PKA(h) (Homo sapiens, UniProt P17612)", "T28 construct": "purchased Eurofins (KinaseProfiler)", "how_it_was_run": "as §1"}, "PKBα(h)": {"target": "T29, PKBα(h) (Homo sapiens, UniProt P31749)", "T29 construct": "purchased Eurofins (KinaseProfiler)", "how_it_was_run": "as §1"}, "PKCβII(h)": {"target": "T30, PKCβII(h) (Homo sapiens, UniProt P05771)", "T30 construct": "purchased Eurofins (KinaseProfiler)", "how_it_was_run": "as §1"}, "PRKG2(h)": {"target": "T31, PRKG2(h) (Homo sapiens, UniProt Q13237)", "T31 construct": "purchased Eurofins (KinaseProfiler)", "how_it_was_run": "as §1"}, "Pyk2(h)": {"target": "T32, Pyk2(h) (Homo sapiens, UniProt Q14289)", "T32 construct": "purchased Eurofins (KinaseProfiler)", "how_it_was_run": "as §1"}, "SAPK2a(h)": {"target": "T33, SAPK2a(h) (Homo sapiens, UniProt Q16539)", "T33 construct": "purchased Eurofins (KinaseProfiler)", "how_it_was_run": "as §1"}, "SIK3(h)": {"target": "T34, SIK3(h) (Homo sapiens, UniProt Q9Y2K2)", "T34 construct": "purchased Eurofins (KinaseProfiler)", "how_it_was_run": "as §1"}, "TGFBR1(h)": {"target": "T35, TGFBR1(h) (Homo sapiens, UniProt P36897)", "T35 construct": "purchased Eurofins (KinaseProfiler)", "how_it_was_run": "as §1"}, "ULK2(h)": {"target": "T36, ULK2(h) (Homo sapiens, UniProt Q8IYT8)", "T36 construct": "purchased Eurofins (KinaseProfiler)", "how_it_was_run": "as §1"}, "cKit(D816V)(h)": {"target": "T37, cKit(D816V)(h) (Homo sapiens, UniProt P10721, D816V)", "T37 construct": "purchased Eurofins (KinaseProfiler)", "T37 sequence (P10721 26-976 D816V)": "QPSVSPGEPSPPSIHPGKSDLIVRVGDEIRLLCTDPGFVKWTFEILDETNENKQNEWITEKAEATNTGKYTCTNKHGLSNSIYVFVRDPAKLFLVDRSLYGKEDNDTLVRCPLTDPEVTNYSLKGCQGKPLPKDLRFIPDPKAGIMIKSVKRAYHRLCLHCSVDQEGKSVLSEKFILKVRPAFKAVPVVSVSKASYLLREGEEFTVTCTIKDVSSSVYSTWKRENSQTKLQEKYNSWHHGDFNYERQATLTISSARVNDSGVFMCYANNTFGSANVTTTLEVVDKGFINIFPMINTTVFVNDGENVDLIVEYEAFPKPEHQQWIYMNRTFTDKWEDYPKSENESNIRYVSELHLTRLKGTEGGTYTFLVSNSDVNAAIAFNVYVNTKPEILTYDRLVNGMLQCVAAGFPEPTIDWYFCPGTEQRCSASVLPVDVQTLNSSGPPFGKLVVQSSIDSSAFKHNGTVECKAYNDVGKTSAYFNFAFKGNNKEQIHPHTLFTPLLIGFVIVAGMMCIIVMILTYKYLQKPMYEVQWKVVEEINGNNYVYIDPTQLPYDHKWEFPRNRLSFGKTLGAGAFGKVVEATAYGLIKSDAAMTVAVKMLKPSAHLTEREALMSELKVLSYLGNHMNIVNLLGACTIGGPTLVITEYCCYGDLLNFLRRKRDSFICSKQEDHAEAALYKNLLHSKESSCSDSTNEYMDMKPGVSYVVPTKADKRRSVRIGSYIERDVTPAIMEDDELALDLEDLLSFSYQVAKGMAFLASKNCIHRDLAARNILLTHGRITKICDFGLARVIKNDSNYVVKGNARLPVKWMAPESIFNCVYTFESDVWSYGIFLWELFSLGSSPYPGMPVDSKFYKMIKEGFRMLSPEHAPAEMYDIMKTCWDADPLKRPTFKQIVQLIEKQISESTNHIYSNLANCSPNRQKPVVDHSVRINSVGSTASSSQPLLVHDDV", "how_it_was_run": "as §1"}, "mTOR(h)": {"target": "T38, mTOR(h) (Homo sapiens, UniProt P42345)", "T38 construct": "purchased Eurofins (KinaseProfiler)", "how_it_was_run": "as §1"}}, "data": [{"compound": "Cc1cc(/C=C/C#N)cc(C)c1Nc1ccnc(Nc2ccc(C#N)cc2)n1", "note": "[rilpivirine, (E)-4-((4-((4-(2-cyanoethenyl)-2,6-dimethylphenyl)amino)pyrimidin-2-yl)amino)benzonitrile]", "values": [{"measurement": "remaining activity at 1 µM", "setting": "ALK(h)", "value": 80, "unit": "%"}, {"measurement": "remaining activity at 1 µM", "setting": "ALK4(h)", "value": 79, "unit": "%"}, {"measurement": "remaining activity at 1 µM", "setting": "Aurora-B(h)", "value": 85, "unit": "%"}, {"measurement": "remaining activity at 1 µM", "setting": "Blk(m)", "value": 75, "unit": "%"}, {"measurement": "remaining activity at 1 µM", "setting": "CDK18/cyclinY(h)", "value": 93, "unit": "%"}, {"measurement": "remaining activity at 1 µM", "setting": "CDK5/p25(h)", "value": 97, "unit": "%"}, {"measurement": "remaining activity at 1 µM", "setting": "CDK6/cyclinD3(h)", "value": 96, "unit": "%"}, {"measurement": "remaining activity at 1 µM", "setting": "CaMKIIβ(h)", "value": 69, "unit": "%"}, {"measurement": "remaining activity at 1 µM", "setting": "CaMKIV(h)", "value": 81, "unit": "%"}, {"measurement": "remaining activity at 1 µM", "setting": "DCAMKL2(h)", "value": 122, "unit": "%"}, {"measurement": "remaining activity at 1 µM", "setting": "EGFR(h)", "value": 111, "unit": "%"}, {"measurement": "remaining activity at 1 µM", "setting": "FAK(h)", "value": 86, "unit": "%"}, {"measurement": "remaining activity at 1 µM", "setting": "FGFR3(h)", "value": 98, "unit": "%"}, {"measurement": "remaining activity at 1 µM", "setting": "IR(h), activated", "value": 85, "unit": "%"}, {"measurement": "remaining activity at 1 µM", "setting": "JNK1α1(h)", "value": 90, "unit": "%"}, {"measurement": "remaining activity at 1 µM", "setting": "LTK(h)", "value": 78, "unit": "%"}, {"measurement": "remaining activity at 1 µM", "setting": "Lck(h) activated", "value": 54, "unit": "%"}, {"measurement": "remaining activity at 1 µM", "setting": "MKK3(h)", "value": 111, "unit": "%"}, {"measurement": "remaining activity at 1 µM", "setting": "MLK4(h)", "value": 95, "unit": "%"}, {"measurement": "remaining activity at 1 µM", "setting": "MST3(h)", "value": 93, "unit": "%"}, {"measurement": "remaining activity at 1 µM", "setting": "Mer(h)", "value": 74, "unit": "%"}, {"measurement": "remaining activity at 1 µM", "setting": "Met(Y1248H)(h)", "value": 98, "unit": "%"}, {"measurement": "remaining activity at 1 µM", "setting": "MuSK(h)", "value": 96, "unit": "%"}, {"measurement": "remaining activity at 1 µM", "setting": "NEK2(h)", "value": 97, "unit": "%"}, {"measurement": "remaining activity at 1 µM", "setting": "NUAK2(h)", "value": 101, "unit": "%"}, {"measurement": "remaining activity at 1 µM", "setting": "PAK4(h)", "value": 87, "unit": "%"}, {"measurement": "remaining activity at 1 µM", "setting": "PDGFRα(h)", "value": 96, "unit": "%"}, {"measurement": "remaining activity at 1 µM", "setting": "PI3KC2a(h)", "value": 94, "unit": "%"}, {"measurement": "remaining activity at 1 µM", "setting": "PKA(h)", "value": 93, "unit": "%"}, {"measurement": "remaining activity at 1 µM", "setting": "PKBα(h)", "value": 80, "unit": "%"}, {"measurement": "remaining activity at 1 µM", "setting": "PKCβII(h)", "value": 94, "unit": "%"}, {"measurement": "remaining activity at 1 µM", "setting": "PRKG2(h)", "value": 92, "unit": "%"}, {"measurement": "remaining activity at 1 µM", "setting": "Pyk2(h)", "value": 81, "unit": "%"}, {"measurement": "remaining activity at 1 µM", "setting": "SAPK2a(h)", "value": 84, "unit": "%"}, {"measurement": "remaining activity at 1 µM", "setting": "SIK3(h)", "value": 89, "unit": "%"}, {"measurement": "remaining activity at 1 µM", "setting": "TGFBR1(h)", "value": 103, "unit": "%"}, {"measurement": "remaining activity at 1 µM", "setting": "ULK2(h)", "value": 90, "unit": "%"}, {"measurement": "remaining activity at 1 µM", "setting": "cKit(D816V)(h)", "value": 88, "unit": "%"}, {"measurement": "remaining activity at 1 µM", "setting": "mTOR(h)", "value": 97, "unit": "%"}]}]}
